Here are results for one molecule from paper PMC8597734 (Antimicrobial Agents and Chemotherapy, 2021).

Data set [1] in a line: Stability in microsomes (intrinsic clearance). It counts as in vitro ADME, human. How it is done:
Intrinsic clearance (CLi) values were determined in mouse and human liver microsomes. Test compounds (final concentration 0.5 μM) were incubated at 37°C for 30 min in 50 mM potassium phosphate buffer (pH 7.4) containing 0.5 mg microsomal protein/ml. The reaction was started by addition of cofactor NADPH. At 10 different time points (from zero to 30 min) an aliquot (90 μl) was taken, quenched with acetonitrile-methanol containing an appropriate internal standard, centrifuged and analyzed by LC-MS/MS. The intrinsic clearance (CLi) was determined using the following equation: CLi=k*(ml of incubation/mg microsomal protein)*(mg microsomal protein/g liver)
Where k is the turn-over rate constant of the ln (% remaining compound) versus time regression and mg microsomal protein/g liver is 52.5 for both mouse and human.

Data set [2] relates to M. abscessus subsp. bolletii M232. The data set can be described thus: microbe, parasite or virus in culture. The class given is cell-based, Mycobacterium abscessus. To be noted: Mycobacteroides abscessus, 72 h.
The nature of data set [3]: AMP (artificial membrane permeability) assay. As to conditions: PAMPA, pH 7.4. The class given is in vitro ADME. How it is done:
An 8% L-a-phosphatidylcholine (EPC) in 1% cholesterol decane solution and a 1.8% EPC in cholesterol decane solution were prepared. The lipid solution was aliquoted into 4 ml capped vials, sealed with parafilm and stored in −20°C freezer. The lipid solution was then transferred from 4 ml vial into a 96-well half area plate (130 μl/well) for daily assay usage. An additional 50 mM phosphate buffer with 0.5% encapsin, pH at 7.4 was prepared. The assay was run by the Biomek FX and Biomek software. The assay procedure is written under the Biomek software. For one batch assay, it can test two 96-well sample plates with at least one standard on each sample plate. The total assay time was about 4 h. 3.5 μl of lipid solution were added to the filler plate, shaken for 12 s, and 250 μl of buffer were added to donor side and 100 μl to the receiver side. The assay plate was shaken for 45 min before adding the compounds. The test compounds (2.5 μl) were added to the donor side. The assay was run as replicates: Assay plates 1 and 2 tested the sample plate 1; assay plates 3 and 4 tested the sample plate 2. The assay plates were then incubated and shaken for 3 h at room temperature. The assay samples were transferred to the HPLC analysis plates and 100 μl of receiver solution were aspirated and transferred to the receiver for analysis. […] Compound concentration was measured by HPLC at different time points.
Background: In PAMPA a lipid-coated filter parts donor from acceptor wells.

For data set [4], the system named is M. abscessus subsp. abscessus ATCC 19977. The data set can be described thus: microbe, parasite or virus in culture. It counts as cell-based, Mycobacterium abscessus. As to conditions: Mycobacteroides abscessus.
Data set [5] relates to M. abscessus subsp. bolletii CCUG 50184T. The data set can be described thus: microbe, parasite or virus in culture. It counts as cell-based, Mycobacterium abscessus. As to conditions: Mycobacteroides abscessus, 72 h.
The test system of data set [6] is M. abscessus ATCC 19977 MXF_R1 (GyrA D96Y). The data set is described as follows: microbe, parasite or virus in culture. To be noted: Mycobacteroides abscessus, ATCC19977. It counts as cell-based, Mycobacterium abscessus.

In brackets after ≈: the same amount, converted by molar mass.

As usually defined, the Papp is a coefficient for how fast a substance crosses the barrier. Read a low Papp as poor permeation. Regarding `COc1cnc2ccc(=O)n(CCN3CCC(NCc4cnc(CO)c(Cl)c4)CC3)c2c1` [EC/11716], the “Human In vitro CLint” value in data set [1] (human hepatic microsomes, free base form) is given as less than 0.3 ml/min/g tissue. Further, the Human microsomal clearance in data set [1] (human microsomes) is listed as less than 0.3 ml/min/g protein. Besides, the MIC in data set [2] was 2.5 µM (≈ 1.14 µg/mL); in data set [4] (ATCC19977) it was 1.9 µM (≈ 0.87 µg/mL); in data set [4] (ATCC19977, 72 h), 1.8 µM (≈ 0.824 µg/mL); in data set [5], 4.1 µM (≈ 1.88 µg/mL); in data set [6], not above 10 µM. In addition, the Papp at 3 h in data set [3] came to 16 ×10⁻⁶ cm/s.
